This is an account of results in patent EP0366451A2, “The use of oxidized polyamines, especially NN'-Bis-(3-propionaldehyde)-1-4-diaminobutane (sperminedialdehyde) as immunosuppressive agents” (ORTHO PHARMACEUTICAL CORPORATION, priority 1988, dated 1990).

One data set concerns C57BL mice. Description: In vivo generation of cytotoxic T cells in mice. Conditions: Figure 5. The protocol:
C57BL mice were injected i.p. daily with different doses of spermine dialdehyde. On day 2, they also received 107 DBA spleen cells. Seven days later, animals were sacrificed and percentage of cytotoxic T cells (measured by % specific lipes generated in the spleen was calculated and plotted as a function of concentration of spermine dialdehyde.
In vivo generation of cytotoxic T cells was performed according to the method described by Faanes et al., Clin. Esp. Immunol., Vol. 27 pp. 502-506 (1977). C57BL mice were arranged into groups of 10 and injected IP with different doses of spermine dialdehyde or control preparation. Two days after first injection, they received i.p. injection of 10⁷ DBA spleen cells which were prepared as described previously. Ten days after cell injection, C57 mice were sacrificed by cervical dislocation and cytotoxic T cells generated in the spleen were quantified by measuring the ability of those cells to lyse 51Cr labelled PB15 target cells (a mastocytoma, cells of DBA origin or Con A stimulated DBA spleen blasts). P815 cells or blasts were suspended at 10⁷ cells/ml and incubated with 200 MCi of 51Cr for 1 hour at 37°C. […] After incubation, 100 Ml of supernatant was removed and counted in the gamma counter. The percentage of cytotoxic T cells was calculated: [formula] […]

For a further data set, the system named is C3H mice. As to the kind of experiment: Skin graft transplant (Balb/c skin onto C3H mice). It counts as in vivo.
For the next data set, the system named is L1210/CPA cells. Description: L1210/CPA cell proliferation ([3H]-thymidine incorporation). It counts as cell-based, Murine. The protocol:
Murine lymphocytic leukemia cell lines, L1210/CPA and L1210/0 (als. known as Le/CPA and Le/0) were kindly provided by Dr. F. Struck, Southern Research Institute, Birmingham, AL. Cells were grown in RPMI-1640, supplemented with 10% horse serum, 100 units/ml penicillin and 100 µg/ml streptomycin. The cultures were incubated at 37°C in a humidified atmosphere with 5% CO₂ in air. Bone marrow cells were flushed from femurs of mice with RPMI-1640, using a tuberculin syringe fitted with a 25 gauge meedle. For spleen cells, spleens were removed and passed through a fine wire mesh to get a single homogenous cell suspension. In either case, cells were centrifuged, washed twice and resuspended in the drug exposure medium (see below). Cell viability was determined by trypan blue exclusion and the cell suspension was diluted to the desired concentration.
Murine leukemic cells and bone marrow/spleen cells were treated with SDA (1 x 10^-6 M to 5 x 10⁻⁵ M) in RPMI-1640 or PBS based solution. Wherever mentioned, cells were pretreated with DEAB (10-30 µM) for 30-60 min at 37°C and then exposed to SDA.
For [³H]-thymidine incorporation, drug or vehicle treated bone marrow or spleen cells were plated in RPMI-1640, containing 10% fetal bovine serum, 10 µM β-mercaptoethanol, 25 mM HEPES and 2 mM glutamine. Con-A (4 µg/ml and […]) was used as mitogens for bone marrow and spleen cells. […]

Procedure for C3H mice: Spermine dialdehyde was administered s.c, right after transplantation and continued throughout the study. Cyclosporin A (CsA) was run along as a positive control.

Regarding `O=CCCNCCCCNCCC=O` [SDA, NN′-Bis-(3-propionaldehyde)-1-4-diaminobutane], the ED (maximum) in the data set with C57BL mice (Mus musculus, T-cell, ip, read-out: dose that appeared to attain maximum suppression of cytotoxic T cell generation) was determined as 10 mg/kg. The “generation of cytotoxic T cells” value in the data set on C57BL mice (i.p.) was “suppressed the generation of cytotoxic T cells in a dose related manner”. Besides, in the data set with C3H mice (SDA s.c., all 3 doses, especially 10 mg/kg and 20 mg/kg, Figure 6), the skin graft survival entry was “prolonged skin graft survival”. In addition, the “efficacy in skin graft experiments compared with CsA” value in the data set on C3H mice (mouse, in vivo) is reported as “more effective than a comparable dose of CsA”. Besides, in the data set on L1210/CPA cells (DEAB (20 µM) pretreatment), the “effect of DEAB pretreatment on cytotoxicity of SDA” value is listed as “potentiated the cytotoxicitty of SDA”. In the data set on L1210/CPA cells (Mus musculus, L1210, [³H]-thymidine incorporation, read-out: mean IC₅₀), the IC50 was determined as 8.3 µM.
